Experimental data: ChEMBL document CHEMBL4828727, “Antibacterial and antitumoral properties of 1,2,3-triazolo fused triterpenes and their mechanism of inhibiting the proliferation of HL-60 cells” (Eur J Med Chem, 2021)
Converted amounts (≈) assume the structure as drawn. The source made the active and inactive calls. The rule behind the calls is not given here.

Key:
CAPAN-1 = experiment: cells; type: functional, cell-based; conditions: Homo sapiens, CAPAN-1, 72 h
Description: Antiproliferative activity against human CAPAN-1 cells assessed as inhibition of cell viability measured after 72 hrs by colorimetric MTS viability assay

[1] = Antiproliferative activity against human HAP1 cells assessed as inhibition of cell viability measured after 72 hrs by colorimetric MTS viability assay; type: functional, cell-based; conditions: HAP1, 72 h
HCT-116 = experiment: Antiproliferative activity against human HCT-116 cells assessed as inhibition of cell viability measured after 72 hrs by colorimetric MTS viability assay; type: functional, cell-based; conditions: HCT-116, 72 h
NCI-H460 = experiment: cells; type: functional, cell-based; conditions: Homo sapiens, NCI-H460, 72 h
Description: Antiproliferative activity against human NCI-H460 cells assessed as inhibition of cell viability measured after 72 hrs by colorimetric MTS viability assay

[2] = Antiproliferative activity against human DND41 cells assessed as inhibition of cell viability measured after 72 hrs by real-time IncuCyte proliferation analysis; type: functional, cell-based; conditions: DND41, 72 h
HL-60 [3] = experiment: cells; type: functional, cell-based; conditions: Homo sapiens, HL-60, 72 h
Description: Antiproliferative activity against human HL-60 cells assessed as inhibition of cell viability measured after 72 hrs by real-time IncuCyte proliferation analysis

Z-138 = experiment: cells; type: functional, cell-based; conditions: Homo sapiens, Z-138, 72 h
Description: Antiproliferative activity against human Z138 cells assessed as inhibition of cell viability measured after 72 hrs by real-time IncuCyte proliferation analysis

MV4-11 = experiment: cells; type: functional, cell-based; conditions: Homo sapiens, MV4-11, 72 h
Description: Cytotoxicity against human MV4-11cells assessed as inhibition of cell viability measured after 72 hrs by real-time IncuCyte proliferation analysis

Rec1 = experiment: cells; type: functional, cell-based; conditions: Homo sapiens, Rec1, 72 h
Description: Cytotoxicity against human REC1 cells assessed as inhibition of cell viability measured after 72 hrs by real-time IncuCyte proliferation analysis

HL-60 [4] = experiment: Induction of apoptosis in human HL-60 cells assessed as live cells at 6 uM after 48 hrs by Annexin V-PE/7-AAD dual staining based flow cytometry (reference value: 90.1 to 90.7%); type: functional
HL-60 [5] = experiment: Induction of apoptosis in human HL-60 cells assessed as early apoptotic cells at 6 uM after 48 hrs by Annexin V-PE/7-AAD dual staining based flow cytometry (reference value: 1.72 to 3.25%); type: functional
HL-60 [6] = experiment: Induction of apoptosis in human HL-60 cells assessed as necrotic cells at 6 uM after 48 hrs by Annexin V-PE/7-AAD dual staining based flow cytometry (reference value: 2.64 to 3.64%); type: functional
HL-60 [7] = experiment: Induction of apoptosis in human HL-60 cells assessed as live cells at 8 uM after 48 hrs by Annexin V-PE/7-AAD dual staining based flow cytometry (reference value: 90.1 to 90.7%); type: functional
HL-60 [8] = experiment: Induction of apoptosis in human HL-60 cells assessed as early apoptotic cells at 8 uM after 48hrs by Annexin V-PE/7-AAD dual staining based flow cytometry (reference value: 1.72 to 3.25%); type: functional
HL-60 [9] = experiment: Induction of apoptosis in human HL-60 cells assessed as late apoptotic cells at 8 uM after 48 hrs by Annexin V-PE/7-AAD dual staining based flow cytometry (Rvb =3.93%); type: functional
HL-60 [10] = experiment: Induction of apoptosis in human HL-60 cells assessed as necrotic cells at 8 uM after 48 hrs by Annexin V-PE and 7AAD based flow cytometry (reference value: 2.64 to 3.64%); type: functional
HL-60 [11] = experiment: Induction of apoptosis in human HL-60 cells assessed as live cells at 10 uM after 48 hrs by Annexin V-PE/7-AAD dual staining based flow cytometry (reference value: 90.1 to 90.7%); type: functional
HL-60 [12] = experiment: Induction of apoptosis in human HL-60 cells assessed as late apoptotic cells at 10 uM after 48 hrs by Annexin V-PE/7-AAD dual staining based flow cytometry (reference value: 3.93%); type: functional
HL-60 [13] = experiment: Induction of apoptosis in human HL-60 cells assessed as necrotic cells at 6 uM in presence of 3-MA after 48 hrs by Annexin V-PE/7-AAD dual staining based flow cytometry (reference value: 2.62%); type: functional
HL-60 [14] = experiment: Induction of apoptosis in human HL-60 cells assessed as early apoptotic cells at 8 uM in presence of 3-MA after 48 hrs by Annexin V-PE/7-AAD dual staining based flow cytometry (reference value: 3.14%); type: functional
HL-60 [15] = experiment: Induction of apoptosis in human HL-60 cells assessed as late apoptotic cells at 8 uM in presence of 3-MA after 48 hrs by Annexin V-PE and 7AAD based flow cytometry (reference value: 3.12%); type: functional
HL-60 [16] = experiment: Induction of apoptosis in human HL-60 cells assessed as necrotic cells at 8 uM in presence of 3-MA after 48 hrs by Annexin V-PE and 7AAD based flow cytometry (reference value: 2.62%); type: functional
HL-60 [17] = experiment: Induction of apoptosis in human HL-60 cells assessed as live cells at 10 uM in presence of 3-MA after 48 hrs by Annexin V-PE/7-AAD dual staining based flow cytometry (reference value: 91.1%); type: functional
HL-60 [18] = experiment: Induction of apoptosis in human HL-60 cells assessed as late apoptotic cells at 10 uM in presence of 3-MA after 48 hrs by Annexin V-PE/7-AAD dual staining based flow cytometry (reference value: 3.12%); type: functional
HL-60 [19] = experiment: Induction of apoptosis in human HL-60 cells assessed as necrotic cells at 10 uM in presence of 3-MA after 48 hrs by Annexin V-PE/7-AAD dual staining based flow cytometry (reference value: 2.62%); type: functional
HL-60 [20] = experiment: Induction of mitochondrial membrane potential loss in human HL-60 cells at 6 uM after 48 hrs by JC-1 staining based flow cytometry (reference value: 3.49%); type: functional
HL-60 [21] = experiment: Induction of mitochondrial membrane potential loss in human HL-60 cells at 10 uM after 48 hrs by JC-1 staining based flow cytometry (reference value: 3.49%); type: functional
Staphylococcus aureus = experiment: Antibacterial activity against Staphylococcus aureus ATCC65385 assessed as growth inhibition after 20 hrs by broth microdilution method; type: functional
Escherichia coli = experiment: Antibacterial activity against Escherichia coli ATCC47076 assessed as growth inhibition after 20 hrs by broth microdilution method; type: functional
[22] = system: Salmonella enterica subsp. enterica; experiment: Antibacterial activity against Salmonella enterica subsp.enterica ATCC13076 assessed as growth inhibition after 20 hrs by broth microdilution method; type: functional
Listeria innocua = experiment: Antibacterial activity against Listeria innocua LMG11387 assessed as growth inhibition after 20 hrs by broth microdilution method; type: functional
HL-60 [23] = experiment: Cell cycle arrest in human HL-60 cells assessed as accumulation of cells at G2/M phase at 6 uM incubated for 48 hrs by propidium iodide staining based flow cytometric analysis (reference value: 6.61%); type: functional
HL-60 [24] = experiment: Cell cycle arrest in human HL-60 cells assessed as increase in accumulation in G0/G1 phase at 8 uM incubated for 48 hrs by propidium iodide staining based flow cytometric analysis (reference value: 64.97%); type: functional
HL-60 [25] = experiment: Cell cycle arrest in human HL-60 cells assessed as decrease in accumulation in S phase at 8 uM incubated for 48 hrs by propidium iodide based flow cytometric analysis (reference value: 28.42%); type: functional; design: scale not given: the % may be the effect or the level left
HL-60 [26] = experiment: Cell cycle arrest in human HL-60 cells assessed as increase in accumulation in G0/G1 phase at 10 uM incubated for 48 hrs by propidium iodide based flow cytometric analysis (Rvb =64.97%); type: functional
HL-60 [27] = experiment: Induction of autophagy in human HL-60 cells assessed as fold increase in MDC fluorescence intensity at 8 uM measured after 48 hrs by flow cytometry relative to control; type: functional

IC50 (CAPAN-1): 8.1 µM
IC50 (HCT-116): 15.2 µM
IC50 (NCI-H460): 12.5 µM
IC50 (HL-60 [3]): 1.3 µM
IC50 (Z-138): 11.3 µM
IC50 (MV4-11): 12.8 µM
IC50 (Rec1): 6.2 µM
MIC50 (Staphylococcus aureus): 32.3 mg/L (≈ 49.5 µM)
MIC50 (Escherichia coli): 413 mg/L (≈ 632 µM)
MIC50 [22]: inactive
MIC50 (Listeria innocua): 103 mg/L (≈ 158 µM)
SMILES: COc1ccc2[nH]cc(CCn3nnc4c3C(C)(C)[C@@H]3CC[C@]5(C)[C@H](CC=C6[C@@H]7CC(C)(C)CC[C@]7(C(=O)O)CC[C@]65C)[C@@]3(C)C4)c2c1
IC50 [1]: 4.1 µM
IC50 [2]: 7.2 µM
Activity (HL-60 [4]): 80%
Activity (HL-60 [5]): 3.06%
Activity (HL-60 [6]): 0.501%
Activity (HL-60 [7]): 50.1%
Activity (HL-60 [8]): 4.97%
Activity (HL-60 [9]): 34.3%
Activity (HL-60 [10]): 0.415%
Activity (HL-60 [11]): 20.4%
Activity (HL-60 [12]): 63.2%
Activity (HL-60 [13]): 0.358%
Activity (HL-60 [14]): 20%
Activity (HL-60 [15]): 8.89%
Activity (HL-60 [16]): 2.21%
Activity (HL-60 [17]): 54.2%
Activity (HL-60 [18]): 30.8%
Activity (HL-60 [19]): 0.317%
Activity (HL-60 [20]): 7.86%
Activity (HL-60 [21]): 60.8%
Activity (HL-60 [23]): 7.66%
Activity (HL-60 [24]): 73.3%
Activity (HL-60 [25]): 20.46%
Activity (HL-60 [26]): 85.45%
fold change (FC) (HL-60 [27]): 1.72
